≈ marks a conversion by molar mass, not a printed value.
Assays:
Staphylococcus aureus [1] = test: Potency index, ratio of vancomycin MIC to test compound MIC for antibacterial activity against methicillin resistant Staphylococcus aureus 3; assay type: functional
Staphylococcus aureus [2] = test: Antibacterial activity against methicillin resistant Staphylococcus aureus 1; assay type: functional
Staphylococcus aureus [3] = test: Potency index, ratio of vancomycin MIC to test compound MIC for antibacterial activity against methicillin resistant Staphylococcus aureus 2; assay type: functional
Staphylococcus aureus [4] = test: Antibacterial activity against Staphylococcus aureus; assay type: functional
Staphylococcus aureus [5] = test: Antibacterial activity against methicillin resistant Staphylococcus aureus 2; assay type: functional
Staphylococcus aureus [6] = test: Potency index, ratio of vancomycin MIC to test compound MIC for antibacterial activity against methicillin resistant Staphylococcus aureus 1; assay type: functional
Staphylococcus aureus [7] = test: Antibacterial activity against methicillin resistant Staphylococcus aureus 3; assay type: functional
Staphylococcus aureus [8] = test: Antibacterial activity against fluoroquinolone/methicillin resistant Staphylococcus aureus; assay type: functional
Staphylococcus aureus [9] = test: Potency index, ratio of levofloxacin MIC to test compound MIC for antibacterial activity against fluoroquinolone/methicillin resistant Staphylococcus aureus; assay type: functional
Staphylococcus aureus [10] = test: Antibacterial activity against fluoroquinolone sensitive Staphylococcus aureus; assay type: functional
Staphylococcus aureus [11] = test: Antibacterial activity against ciprofloxacin resistant Staphylococcus aureus; assay type: functional
Klebsiella pneumoniae [12] = test: Antibacterial activity against Klebsiella pneumoniae; assay type: functional
Acinetobacter baumannii [13] = test: Antibacterial activity against quinolone resistant Acinetobacter baumannii; assay type: functional
Escherichia coli [14] = test: Antibacterial activity against ciprofloxacin resistant Escherichia coli; assay type: functional
Pseudomonas aeruginosa [15] = test: Antibacterial activity against quinolone susceptible Pseudomonas aeruginosa; assay type: functional
[16] = system: Staphylococcus epidermidis; test: Antibacterial activity against Staphylococcus epidermidis; assay type: functional
Vibrio cholerae = test: Antibacterial activity against Vibrio cholerae; assay type: functional
Citrobacter freundii = test: Antibacterial activity against Citrobacter freundii; assay type: functional
Micrococcus luteus = test: Antibacterial activity against Micrococcus luteus; assay type: functional
Pseudomonas aeruginosa [17] = test: Antibacterial activity against quinolone resistant Pseudomonas aeruginosa; assay type: functional
Priestia megaterium = test: Antibacterial activity against Bacillus megaterium; assay type: functional
Shigella flexneri = test: Antibacterial activity against Shigella flexneri; assay type: functional
Staphylococcus aureus [18] = test: Antibacterial activity against methicillin susceptible Staphylococcus aureus; assay type: functional
Chlamydia trachomatis = test: Antibacterial activity against Chlamydia trachomatis; assay type: functional
Pseudomonas aeruginosa [19] = test: Antibacterial activity against Pseudomonas aeruginosa; assay type: functional
Bacillus subtilis = test: Antibacterial activity against Bacillus subtilis; assay type: functional
[20] = Antibacterial activity against Salmonella typhi; assay type: functional, Salmonella enterica subsp. enterica serovar Typhimurium; conditions: Salmonella enterica
Staphylococcus aureus [21] = test: Potency index, ratio of ciprofloxacin MIC to test compound MIC for antibacterial activity against methicillin resistant Staphylococcus aureus; assay type: functional
Staphylococcus aureus [22] = test: Potency index, ratio of ciprofloxacin MIC to test compound MIC for antibacterial activity against Staphylococcus aureus; assay type: functional
Staphylococcus aureus [23] = test: Antibacterial activity against methicillin resistant Staphylococcus aureus; assay type: functional
Escherichia coli [24] = test: Antibacterial activity against Escherichia coli; assay type: functional
Serratia marcescens = test: Antibacterial activity against Serratia marcescens; assay type: functional
Escherichia coli [25] = test: Antibacterial activity against Escherichia coli CFT073; assay type: functional
Escherichia coli [26] = test: Antibacterial activity against Escherichia coli UTI89; assay type: functional
Escherichia coli [27] = test: Potency index, ratio of levofloxacin MIC to test compound MIC for quinolone resistant Escherichia coli; assay type: functional
Escherichia coli [28] = test: Antibacterial activity against quinolone susceptible Escherichia coli; assay type: functional
Acinetobacter baumannii [29] = test: Potency index, ratio of levofloxacin MIC to test compound MIC for quinolone resistant Acinetobacter baumannii; assay type: functional
Escherichia coli [30] = test: Antibacterial activity against quinolone resistant Escherichia coli; assay type: functional
Pseudomonas aeruginosa [31] = test: Potency index, ratio of levofloxacin MIC to test compound MIC for quinolone resistant Pseudomonas aeruginosa; assay type: functional
Enterobacter = test: Antibacterial activity against Enterobacter; assay type: functional
Enterococcus faecium = test: Antibacterial activity against Enterococcus faecium; assay type: functional
Enterobacter cloacae = test: Synergistic antibacterial activity against Enterobacter cloacae assessed as reduction in mitomycin C MIC (reference value: […] to […] microg/ml); assay type: functional
Pseudomonas aeruginosa [32] = test: Synergistic antibacterial activity against Pseudomonas aeruginosa assessed as reduction in mitomycin C MIC (reference value: […] to […] microg/ml); assay type: functional
Klebsiella pneumoniae [33] = test: Synergistic antibacterial activity against Klebsiella pneumoniae assessed as reduction in mitomycin C MIC (reference value: […] to […] microg/ml); assay type: functional
Pseudomonas aeruginosa [34] = test: Antibacterial activity against Pseudomonas aeruginosa PAO1; assay type: functional
Escherichia coli [35] = test: Synergistic antibacterial activity against Escherichia coli assessed as reduction in mitomycin C MIC (reference value: […] to […] microg/ml); assay type: functional
Pseudomonas aeruginosa [36] = test: Antibacterial activity against Pseudomonas aeruginosa PAO750; assay type: functional
Pseudomonas aeruginosa [37] = test: Antibacterial activity against Pseudomonas aeruginosa PAO200; assay type: functional
Streptococcus pneumoniae [38] = test: Antibacterial activity against Streptococcus pneumoniae; assay type: functional
Staphylococcus aureus [39] = test: Potency index, ratio of vancomycin MIC to test compound MIC for antibacterial activity against Staphylococcus aureus; assay type: functional
Streptococcus pneumoniae [40] = test: Potency index, ratio of gatifloxacin MIC to test compound MIC for antibacterial activity against methicillin susceptible Streptococcus pneumoniae; assay type: functional
Staphylococcus aureus [41] = test: Potency index, ratio of gatifloxacin MIC to test compound MIC for antibacterial activity against methicillin susceptible Staphylococcus aureus; assay type: functional
Staphylococcus aureus [42] = test: Potency index, ratio of gatifloxacin MIC to test compound MIC for antibacterial activity against Staphylococcus aureus; assay type: functional
Streptococcus pneumoniae [43] = test: Potency index, ratio of vancomycin MIC to test compound MIC for antibacterial activity against methicillin susceptible Streptococcus pneumoniae; assay type: functional
Staphylococcus aureus [44] = test: Potency index, ratio of vancomycin MIC to test compound MIC for antibacterial activity against methicillin susceptible Staphylococcus aureus; assay type: functional
Staphylococcus aureus [45] = test: Potency index, ratio of ciprofloxacin MIC to test compound MIC for antibacterial activity against methicillin sensitive Staphylococcus aureus; assay type: functional
[46] = system: Staphylococcus epidermidis; test: Potency index, ratio of ciprofloxacin MIC to test compound MIC for antibacterial activity against methicillin sensitive Staphylococcus epidermidis; assay type: functional

## CCn1cc(C(=O)O)c(=O)c2cc(F)c(N3CCN(Cc4nnc(-c5cccc(OC)c5)o4)CC3)cc21
Staphylococcus aureus [1]
  Ratio: 2
Staphylococcus aureus [2]
  MIC: 0.5 µg/mL (≈ 0.985 µM)
Staphylococcus aureus [3]
  Ratio: 2
Staphylococcus aureus [4]
  MIC: 2 µg/mL (≈ 3.94 µM)
Staphylococcus aureus [5]
  MIC: 0.5 µg/mL (≈ 0.985 µM)
Staphylococcus aureus [6]
  Ratio: 2
Staphylococcus aureus [7]
  MIC: 1 µg/mL (≈ 1.97 µM)

## CC(Cl)C(=O)OC1CC2CCC(C1)N2c1c(F)cc2c(=O)c(C(=O)O)cn3c2c1OC[C@@H]3C (stereo partly drawn)
Staphylococcus aureus [8]
  MIC: ≤ 0.5 µg/mL
Staphylococcus aureus [9]
  Ratio: 4
Staphylococcus aureus [10]
  MIC: ≤ 0.5 µg/mL

## O=C(O)c1cn(C2CC2)c2cc(N3CCNCC3)c(F)cc2c1=O [CIPROFLOXACIN]
Staphylococcus aureus [11]
  MIC: 20.5 µg/mL (≈ 61.9 µM)
Klebsiella pneumoniae [12]
  MIC: 0.15 µg/mL (≈ 0.453 µM)
Acinetobacter baumannii [13]
  MIC: 16 µg/mL (≈ 48.3 µM)
Escherichia coli [14]
  MIC: 20.5 µg/mL (≈ 61.9 µM)
Pseudomonas aeruginosa [15]
  MIC: 8 ng/mL (≈ 0.0241 µM)
[16]
  MIC: 0.015 µg/mL (≈ 0.0453 µM)
Vibrio cholerae
  MIC: 0.15 µg/mL (≈ 0.453 µM)
Citrobacter freundii
  MIC: 0.15 µg/mL (≈ 0.453 µM)
Micrococcus luteus
  MIC: 7.8 µg/mL (≈ 23.5 µM)
Pseudomonas aeruginosa [17]
  MIC: 16 µg/mL (≈ 48.3 µM)
Priestia megaterium
  MIC: 7.8 µg/mL (≈ 23.5 µM)
Shigella flexneri
  MIC: 0.15 µg/mL (≈ 0.453 µM)
Staphylococcus aureus [18]
  MIC: 0.195 µg/mL (≈ 0.589 µM)
Staphylococcus aureus [4]
  MIC: 0.015 µg/mL (≈ 0.0453 µM)
Chlamydia trachomatis
  MBC: > 50 µg/mL
Pseudomonas aeruginosa [19]
  MIC: 0.012 µg/mL (≈ 0.0362 µM)
Bacillus subtilis
  MIC: 0.015 µg/mL (≈ 0.0453 µM)
[20]
  MIC: 0.15 µg/mL (≈ 0.453 µM)

## O=C(O)c1cn(C2CC2)c2cc(N3CCN(Cc4nc5ccccc5c(=O)[nH]4)CC3)c(F)cc2c1=O
Staphylococcus aureus [21]
  Ratio: 60
Staphylococcus aureus [22]
  Ratio: 30
Staphylococcus aureus [23]
  MIC: 0.016 µg/mL (≈ 0.0327 µM)
Staphylococcus aureus [4]
  MIC: 0.016 µg/mL (≈ 0.0327 µM)

## O=C(CN1CCN(c2cc3c(cc2F)c(=O)c(C(=O)O)cn3-c2ccc(F)cc2)CC1)c1ccc(Cl)cc1
Klebsiella pneumoniae [12]
  MIC: 0.5 µg/mL (≈ 0.929 µM)
[16]
  MIC: 0.5 µg/mL (≈ 0.929 µM)
Staphylococcus aureus [4]
  MIC: 0.5 µg/mL (≈ 0.929 µM)
Escherichia coli [24]
  MIC: 0.5 µg/mL (≈ 0.929 µM)
Pseudomonas aeruginosa [19]
  MIC: 0.5 µg/mL (≈ 0.929 µM)
Bacillus subtilis
  MIC: 0.5 µg/mL (≈ 0.929 µM)
Serratia marcescens
  MIC: 0.5 µg/mL (≈ 0.929 µM)

## CC(=O)c1cn(C2CC2)c2cc(N3CCN(C(=O)CCCCCNC(=O)c4cc(O)c(O)c(C(=O)N[C@H]5COC(=O)[C@@H](NC(=O)c6cccc(O)c6O)COC(=O)[C@@H](NC(=O)c6cccc(O)c6O)COC5=O)c4)CC3)c(F)cc2c1=O
Escherichia coli [25]
  MIC: 0.1 µg/mL (≈ 0.0879 µM)
Escherichia coli [26]
  MIC: 0.1 µg/mL (≈ 0.0879 µM)

## CNC1CN(c2c(F)c(C)c3c(=O)c(C(=O)O)cn(-c4cc(N)c(F)cc4CO)c3c2Cl)C1
Acinetobacter baumannii [13]
  MIC: 0.12 µg/mL (≈ 0.251 µM)
Pseudomonas aeruginosa [15]
  MIC: 8 ng/mL (≈ 0.0167 µM)
Escherichia coli [27]
  Ratio: 2
Escherichia coli [28]
  MIC: 8 ng/mL (≈ 0.0167 µM)
Acinetobacter baumannii [29]
  Ratio: 2
Pseudomonas aeruginosa [17]
  MIC: 0.12 µg/mL (≈ 0.251 µM)
Escherichia coli [30]
  MIC: 0.12 µg/mL (≈ 0.251 µM)
Pseudomonas aeruginosa [31]
  Ratio: 2

## COc1c(N2CCN(C(=O)c3ccc4cccc(O)c4n3)CC2)c(F)cc2c(=O)c(C(=O)O)cn(C3CC3)c12
Klebsiella pneumoniae [12]
  MIC: ≤ 0.06 µg/mL
Acinetobacter baumannii [13]
  MIC: ≤ 0.06 µg/mL
Enterobacter
  MIC: ≤ 0.06 µg/mL
Enterococcus faecium
  MIC: ≤ 0.06 µg/mL
Staphylococcus aureus [4]
  MIC: ≤ 0.06 µg/mL
Chlamydia trachomatis
  MBC: 2 µg/mL (≈ 3.76 µM)
  MIC: ≤ 0.06 µg/mL
Pseudomonas aeruginosa [19]
  MIC: ≤ 0.06 µg/mL

## C[C@H]1COc2c(N3C4CCC3CC(OC(=O)CCl)C4)c(F)cc3c(=O)c(C(=O)O)cn1c23 (stereo partly drawn)
Staphylococcus aureus [8]
  MIC: ≤ 0.5 µg/mL
Staphylococcus aureus [9]
  Ratio: 4
Staphylococcus aureus [10]
  MIC: ≤ 0.5 µg/mL

## NC[C@H]1O[C@H](O[C@H]2[C@H](OCCCCN3CCN(c4cc5c(cc4F)c(=O)c(C(=O)O)cn5C4CC4)CC3)[C@@H](O[C@H]3O[C@H](CO)[C@@H](O)[C@H](N)[C@H]3O)[C@H](N)C[C@@H]2N)[C@H](N)C[C@@H]1O
Enterobacter cloacae
  MIC: 0.31 µg/mL
Pseudomonas aeruginosa [32]
  MIC: 0.31 µg/mL
Klebsiella pneumoniae [33]
  MIC: 0.31 µg/mL
Pseudomonas aeruginosa [34]
  MIC: 32 µg/mL (≈ 37.5 µM)
Escherichia coli [35]
  MIC: 0.31 µg/mL
Pseudomonas aeruginosa [36]
  MIC: 2 µg/mL (≈ 2.34 µM)
Pseudomonas aeruginosa [37]
  MIC: 4 µg/mL (≈ 4.69 µM)

## CO/N=C1/C(=O)N(Cc2cn(CC(=O)N3CCN(c4c(F)cc5c(=O)c(C(=O)O)cn(C6CC6)c5c4OC)CC3C)nn2)c2ccc(F)cc21 (stereo not drawn)
Streptococcus pneumoniae [38]
  MIC: 0.06 µg/mL (≈ 0.0869 µM)
Staphylococcus aureus [39]
  Ratio: 2
Streptococcus pneumoniae [40]
  Ratio: 2
Staphylococcus aureus [2]
  MIC: ≤ 0.03 µg/mL
Staphylococcus aureus [41]
  Ratio: 2
Staphylococcus aureus [18]
  MIC: 0.06 µg/mL (≈ 0.0869 µM)
Staphylococcus aureus [4]
  MIC: 0.06 µg/mL (≈ 0.0869 µM)
Staphylococcus aureus [42]
  Ratio: 2
Staphylococcus aureus [5]
  MIC: ≤ 0.03 µg/mL
Streptococcus pneumoniae [43]
  Ratio: 2
Staphylococcus aureus [7]
  MIC: ≤ 0.03 µg/mL
Staphylococcus aureus [44]
  Ratio: 2

## O=C(CSC(=S)N1CCN(c2cc3c(cc2F)c(=O)c(C(=O)O)cn3C2CC2)CC1)Nc1ccccc1Cl
[16]
  MIC: 0.097 µg/mL (≈ 0.169 µM)
Staphylococcus aureus [22]
  Ratio: 2
Staphylococcus aureus [45]
  Ratio: 2
Staphylococcus aureus [18]
  MIC: 0.097 µg/mL (≈ 0.169 µM)
Staphylococcus aureus [23]
  MIC: 0.097 µg/mL (≈ 0.169 µM)
Staphylococcus aureus [4]
  MIC: 0.097 µg/mL (≈ 0.169 µM)
Escherichia coli [24]
  MIC: 0.024 µg/mL (≈ 0.0417 µM)
[46]
  Ratio: 2
Pseudomonas aeruginosa [19]
  MIC: 0.024 µg/mL (≈ 0.0417 µM)
